Measured values: ChEMBL document CHEMBL1201862, “PubChem BioAssay data set” (2004)
The source made the active and inactive calls.

How the values were obtained:
[1] = target: T1, Rac GTPase-activating protein 1 (Homo sapiens, UniProt Q9H0H5); assay: blockers of MgcRacGAP-driven Rac1 GTP hydrolysis – biochemical, ADP Hunter fluorescence, primary and confirmatory, confirmation (AID 624330); assay type: functional
T1 sequence (Q9H0H5 whole entry): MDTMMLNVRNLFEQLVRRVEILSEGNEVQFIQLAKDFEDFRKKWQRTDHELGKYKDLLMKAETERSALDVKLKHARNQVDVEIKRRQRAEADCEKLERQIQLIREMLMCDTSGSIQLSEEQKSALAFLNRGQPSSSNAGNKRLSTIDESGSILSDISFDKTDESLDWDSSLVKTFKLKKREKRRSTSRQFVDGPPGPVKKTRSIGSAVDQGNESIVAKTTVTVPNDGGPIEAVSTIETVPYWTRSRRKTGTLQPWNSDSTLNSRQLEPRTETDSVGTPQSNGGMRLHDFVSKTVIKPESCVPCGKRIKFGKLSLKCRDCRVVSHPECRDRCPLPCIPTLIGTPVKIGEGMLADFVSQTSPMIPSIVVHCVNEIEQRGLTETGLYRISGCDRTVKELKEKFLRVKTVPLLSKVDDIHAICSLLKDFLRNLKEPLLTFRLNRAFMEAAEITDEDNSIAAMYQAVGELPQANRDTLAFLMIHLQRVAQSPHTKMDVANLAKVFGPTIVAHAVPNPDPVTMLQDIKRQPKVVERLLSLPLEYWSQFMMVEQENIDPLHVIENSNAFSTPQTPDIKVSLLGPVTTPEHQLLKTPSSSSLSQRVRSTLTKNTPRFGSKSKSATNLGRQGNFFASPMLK

Cytochrome P450 2C9 = Cytochrome P450 2C9 (Homo sapiens, UniProt P11712)
Cytochrome P450 2C19 = Cytochrome P450 2C19 (Homo sapiens, UniProt P33261); assay: Cytochrome panel assay with activity outcomes. Panel member name: p450-cyp2c19 Compounds with AC50 equal or less than 10 uM are considered active; assay type: functional; settings: read-out: AC50
[2] = target: T2, Zinc finger protein mex-5 (Caenorhabditis elegans, UniProt Q9XUB2); assay: potency of MEX-5 RNA-binding blockers – biochemical, C. elegans, fluorescence polarization, dose response (AID 1960)
T2 sequence (Q9XUB2 whole entry): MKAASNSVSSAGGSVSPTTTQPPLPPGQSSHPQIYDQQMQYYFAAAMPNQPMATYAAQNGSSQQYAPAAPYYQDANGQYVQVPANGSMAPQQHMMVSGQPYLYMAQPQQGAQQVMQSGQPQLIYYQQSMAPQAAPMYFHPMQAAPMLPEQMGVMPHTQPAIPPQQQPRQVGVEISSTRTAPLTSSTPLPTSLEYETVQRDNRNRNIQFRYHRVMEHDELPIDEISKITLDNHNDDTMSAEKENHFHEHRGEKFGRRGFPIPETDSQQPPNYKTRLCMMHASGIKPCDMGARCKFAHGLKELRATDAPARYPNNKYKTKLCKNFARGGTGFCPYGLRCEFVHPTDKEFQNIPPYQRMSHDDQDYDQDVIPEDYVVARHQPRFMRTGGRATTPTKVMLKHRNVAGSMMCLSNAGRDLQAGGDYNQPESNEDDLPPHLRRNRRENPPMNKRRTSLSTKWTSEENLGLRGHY

[3] = target: T3, RNA-binding protein pos-1 (Caenorhabditis elegans, UniProt G5EF15); assay: disruptors of C. elegans POS-1 RNA interaction – biochemical, fluorescence polarization, dose response (AID 1964);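 note: purified POS-1 fused to maltose binding protein made in E. coli; potency of compounds blocking POS-1 binding to fluorescent RNA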
T3 sequence (G5EF15 whole entry): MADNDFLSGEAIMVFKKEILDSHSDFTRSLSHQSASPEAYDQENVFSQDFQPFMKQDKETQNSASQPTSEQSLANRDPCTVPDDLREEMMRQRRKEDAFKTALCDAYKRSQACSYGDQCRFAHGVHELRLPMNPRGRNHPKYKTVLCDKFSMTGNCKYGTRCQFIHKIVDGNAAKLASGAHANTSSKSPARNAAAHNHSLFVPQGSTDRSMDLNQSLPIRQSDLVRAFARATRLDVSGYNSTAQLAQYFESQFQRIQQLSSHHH

[4] = target: Luciferin 4-monooxygenase (Photinus pyralis, UniProt P08659); assay: inhibition of purified Photinus pyralis luciferase – biochemical, luminescence, dose response (AID 1891)
[5] = Luminescence Cell-Based Dose Confirmation HTS to Identify Inhibitors of Platelet Dense Granule Release. [Related pubchem assays: 1663 (Primary HTS), 1678 (Summary of Project)]; assay type: functional
[6] = target: T4, Polyadenylate-binding protein 1 (Homo sapiens, UniProt P11940); assay: MLLE binding blockers, Cy5 peptide tracer – biochemical, fluorescence polarization, Cy5-PAM2 peptide, secondary, miRNA deadenylation inhibitor project, dose response (AID 602260); assay type: functional; settings: read-out: IC50_Mean
[7] = target: T4, Polyadenylate-binding protein 1; assay: MLLE domain peptide-binding blockers, IC50 – biochemical, fluorescence polarization, FITC-PAM2 peptide, dose response (AID 602259); assay type: functional; settings: read-out: IC50_Mean
[8] = target: T5, Heat shock factor protein 1 (Mus musculus, UniProt P38532); assay: enhancement of HSF1-driven luciferase signal – cell-based, NIH3T3, luminescence, dose retest, confirmation (AID 435004); assay type: functional;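 note: stress induced by proteasome inhibitor MG132 added 30 min after compound; luciferase reporter driven by HSF1 response element in NIH3T3 cells; actives raise luminescence as potentiators of the MG132 stress response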
T5 sequence (P38532 whole entry): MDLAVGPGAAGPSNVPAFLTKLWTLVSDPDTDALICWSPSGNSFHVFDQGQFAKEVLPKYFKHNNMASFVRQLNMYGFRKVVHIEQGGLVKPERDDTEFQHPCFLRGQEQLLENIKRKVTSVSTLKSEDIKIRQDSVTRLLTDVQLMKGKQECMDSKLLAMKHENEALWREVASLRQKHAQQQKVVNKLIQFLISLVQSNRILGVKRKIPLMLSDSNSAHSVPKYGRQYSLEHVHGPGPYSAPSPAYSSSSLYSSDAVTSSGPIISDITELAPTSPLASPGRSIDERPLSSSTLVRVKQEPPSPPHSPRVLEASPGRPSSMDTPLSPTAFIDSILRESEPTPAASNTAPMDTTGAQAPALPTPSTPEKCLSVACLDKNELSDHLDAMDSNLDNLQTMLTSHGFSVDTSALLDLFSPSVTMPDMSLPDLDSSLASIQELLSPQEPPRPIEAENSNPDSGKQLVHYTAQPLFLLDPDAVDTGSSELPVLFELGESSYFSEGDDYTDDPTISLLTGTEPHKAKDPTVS

[9] = fluconazole-exposed Candida albicans growth modulators – fluorescence, retest, confirmation (AID 2467); assay type: functional, cell-based
[10] = NIH-3T3 fibroblast cytotoxicity, dose response, cytotoxicity control, cell-based, fluorescence, Alamar Blue, secondary assay (AID 2327); assay type: functional;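 note: NIH-3T3 mouse fibroblasts cultured with fluconazole at 8 µg/mL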
[11] = alpha-synuclein stem-loop luciferase translation blockers – H4 neuroglioma cells, luminescence, confirmation (AID 1988); assay type: functional, cell-based
[12] = luciferase reporter signal suppression in cells – H4 neuroglioma cells, luminescence, dose response (AID 1990); assay type: functional, cell-based
[13] = Luminescence Cell-Based Dose Response HTS to Identify Inhibitors of 5'UTR Stem-Loop Driven Prion Protein mRNA Translation in H4 Neuroglioblastoma Cells. [Related pubchem assays: 1827 (Project Summary), 1813 (Primary HTS)]; assay type: functional

Chain of Luciferin 4-monooxygenase (P08659 whole entry): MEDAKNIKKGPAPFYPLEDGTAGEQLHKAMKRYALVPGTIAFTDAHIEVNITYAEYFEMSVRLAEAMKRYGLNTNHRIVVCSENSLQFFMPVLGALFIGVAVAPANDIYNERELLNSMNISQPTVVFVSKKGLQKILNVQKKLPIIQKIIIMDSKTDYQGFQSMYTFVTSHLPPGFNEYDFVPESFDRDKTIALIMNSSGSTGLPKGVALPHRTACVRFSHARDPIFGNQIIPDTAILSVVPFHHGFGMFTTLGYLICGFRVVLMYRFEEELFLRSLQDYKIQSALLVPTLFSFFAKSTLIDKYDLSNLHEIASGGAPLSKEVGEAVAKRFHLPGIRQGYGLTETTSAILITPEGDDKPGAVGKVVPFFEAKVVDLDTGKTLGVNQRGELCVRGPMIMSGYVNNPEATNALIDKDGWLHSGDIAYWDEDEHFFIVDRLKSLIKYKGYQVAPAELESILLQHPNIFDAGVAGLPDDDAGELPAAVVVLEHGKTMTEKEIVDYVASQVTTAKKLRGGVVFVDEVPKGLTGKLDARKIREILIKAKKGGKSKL
T4 sequence (P11940 whole entry, the tested form may be a part): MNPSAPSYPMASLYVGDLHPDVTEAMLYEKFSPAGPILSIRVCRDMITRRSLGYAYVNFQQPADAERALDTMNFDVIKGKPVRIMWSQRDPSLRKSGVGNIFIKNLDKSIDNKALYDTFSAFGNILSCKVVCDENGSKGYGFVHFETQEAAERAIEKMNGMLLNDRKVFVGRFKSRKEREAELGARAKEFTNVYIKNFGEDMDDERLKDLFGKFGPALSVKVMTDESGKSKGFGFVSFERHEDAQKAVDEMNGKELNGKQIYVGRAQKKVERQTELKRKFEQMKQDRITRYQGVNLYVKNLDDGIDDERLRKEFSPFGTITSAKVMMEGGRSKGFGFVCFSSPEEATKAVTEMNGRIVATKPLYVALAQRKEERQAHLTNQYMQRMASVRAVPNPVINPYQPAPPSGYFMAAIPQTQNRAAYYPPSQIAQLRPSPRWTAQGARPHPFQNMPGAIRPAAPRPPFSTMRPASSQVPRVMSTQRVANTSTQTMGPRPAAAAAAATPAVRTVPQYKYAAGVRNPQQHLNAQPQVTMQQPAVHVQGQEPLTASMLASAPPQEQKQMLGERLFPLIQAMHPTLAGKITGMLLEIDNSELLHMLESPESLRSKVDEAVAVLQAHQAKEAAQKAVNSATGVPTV
Chain of Cytochrome P450 2C19 (P33261 whole entry): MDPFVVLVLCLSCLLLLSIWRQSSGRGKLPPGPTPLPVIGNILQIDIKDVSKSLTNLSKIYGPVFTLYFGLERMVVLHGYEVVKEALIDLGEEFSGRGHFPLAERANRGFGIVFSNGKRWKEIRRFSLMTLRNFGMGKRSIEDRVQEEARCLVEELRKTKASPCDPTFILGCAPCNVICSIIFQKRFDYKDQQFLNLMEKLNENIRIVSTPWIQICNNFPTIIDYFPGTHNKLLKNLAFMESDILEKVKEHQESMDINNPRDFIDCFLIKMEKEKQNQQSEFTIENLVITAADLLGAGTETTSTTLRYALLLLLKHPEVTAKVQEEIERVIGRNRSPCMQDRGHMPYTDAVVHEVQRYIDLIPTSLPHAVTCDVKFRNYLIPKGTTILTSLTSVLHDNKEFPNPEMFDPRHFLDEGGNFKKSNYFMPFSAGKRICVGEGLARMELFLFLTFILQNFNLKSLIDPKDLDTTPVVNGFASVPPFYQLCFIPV
Chain of Cytochrome P450 2C9 (P11712 whole entry): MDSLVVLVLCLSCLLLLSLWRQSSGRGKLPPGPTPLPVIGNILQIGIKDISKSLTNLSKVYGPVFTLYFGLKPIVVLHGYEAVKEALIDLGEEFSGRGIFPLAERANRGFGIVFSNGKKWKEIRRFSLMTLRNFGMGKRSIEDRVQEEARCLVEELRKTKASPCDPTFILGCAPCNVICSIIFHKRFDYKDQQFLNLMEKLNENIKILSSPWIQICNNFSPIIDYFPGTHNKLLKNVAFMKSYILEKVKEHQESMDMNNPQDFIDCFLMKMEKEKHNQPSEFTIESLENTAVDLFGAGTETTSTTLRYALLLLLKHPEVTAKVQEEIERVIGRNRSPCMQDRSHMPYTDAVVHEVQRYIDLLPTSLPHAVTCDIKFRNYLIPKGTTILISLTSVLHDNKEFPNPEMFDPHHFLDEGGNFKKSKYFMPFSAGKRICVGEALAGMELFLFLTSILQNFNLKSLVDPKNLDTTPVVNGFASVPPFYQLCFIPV

With `Cc1ccc(-n2[nH]c(=O)c3cccnc32)cc1` the IC50 [1] was 95.2 µM (active), the AC50 (Cytochrome P450 2C9) was 28.2 µM (inconclusive) and the AC50 (Cytochrome P450 2C19) was 25.1 µM (inconclusive).
In the case of `CN(C)C1=NC(=O)/C(=C/c2ccc(-c3ccc(S(N)(=O)=O)cc3)o2)S1`, the EC50 [2] was > 300 µM (not active) and the EC50 [3] was > 300 µM (not active).
With `Cc1cccc(C(=N)NOC(=O)c2ccc3c(c2)OCO3)c1` the EC50 [4] was 0.838 µM (active) and the EC50 [5] was 1.47 µM (active).
With `Cc1ccc([N+](=O)[O-])cc1S(=O)(=O)Nc1ccc(O)c(Sc2nc[nH]n2)c1` the IC50 [6] was > 66 µM (inactive), the EC50 [2] was 9.83 µM (inconclusive) and the EC50 [3] was 9.8 µM (active). For the same compound, the IC50 [7] was > 66 µM (inactive).
With `O=C(NNC(=O)c1ccccc1O)c1cccc(Br)c1` the EC50 [2] was 25.6 µM (active) and the EC50 [3] was 41 µM (active).
With `COCCN1CCN(C(=O)c2ccc3nc(Cc4ccccc4F)oc3c2)CC1` the EC50 [4] was > 112 µM (not active) and the EC50 [5] was > 112 µM (not active).
In the case of `N#Cc1ccsc1NC(=O)CN1CCN(S(=O)(=O)c2ccc3ccccc3c2)CC1`, the EC50 [8] was > 260 µM (inactive).
With `Cc1ccccc1-n1c(-c2ccc(Cl)cc2)cnc1SCC(=O)NC1CCS(=O)(=O)C1` (configuration not stated) the EC50 [8] was > 260 µM (inactive).
In the case of `CC1=CC2=C(OC1N(C)C)c1cccc3cccc(c13)C2=O` (configuration not stated), the EC50 [8] was > 260 µM (inactive), the EC50 [9] was > 38 µM (not active) and the EC50 [10] was > 150 µM (inactive).
In the case of `CCc1nnc(NS(=O)(=O)c2ccc(NCc3ccccc3O)cc2)s1`, the EC50 [4] was > 112 µM (not active) and the EC50 [5] was > 112 µM (not active).
With `Nc1c(Cl)cc(NC(=O)c2ccccc2C(=O)O)cc1Br` the IC50 [1] was 169 µM (active).
With `CSCC(C)N1CCC(Oc2cccc(C(=O)NCc3ccccn3)c2)CC1` (configuration not stated) the IC50 [6] was 34.1 µM (inactive), the EC50 [2] was 75.4 µM (active) and the EC50 [3] was 34.9 µM (active). The IC50 [7] was 31.6 µM (inactive).
For `COc1ccc(OC(=O)COc2ccc(C)cc2)cc1`, the IC50 [1] was 30 µM (active).
With `CCOC(=O)c1c(NC(=O)c2nn(CC)cc2Br)c(C#N)nn1-c1ccccc1` the EC50 [8] was > 260 µM (inactive), the EC50 [11] was > 120 µM (not active) and the EC50 [12] was 22.5 µM (active). The EC50 [13] was > 120 µM (not active).
With `CCCCN(C)C(=O)C1CCC(CNS(=O)(=O)c2ccc3c(c2)CC(C)N3C(=O)C2CC2)CC1` (configuration not stated) the EC50 [8] was > 260 µM (inactive).
With `Cc1cc(C)n2nc(N)c(N=Nc3cccc(Cl)c3)c2n1` the EC50 [8] was > 260 µM (inactive).
For `CCOC(=O)c1c(N)sc(C(=O)Nc2ccc3c(c2)OCO3)c1C`, the EC50 [4] was 1.28 µM (active) and the EC50 [5] was 3.34 µM (active).
For `CC(Oc1ccc(Cl)cc1Cl)C(=O)Nc1ccc(O)cc1` (configuration not stated), the IC50 [1] was 38.4 µM (active).
In the case of `Cc1nc(/C=C2\C(=O)Nc3ccccc32)c[nH]1`, the EC50 [2] was > 300 µM (not active) and the EC50 [3] was > 300 µM (not active).
For `COC(=O)c1c(C)[nH]c(C(=O)OCC(=O)N2c3ccccc3NC(=O)C2(C)C)c1C`, the EC50 [4] was > 112 µM (not active) and the EC50 [5] was > 112 µM (not active).
In the case of `Cc1occc1C(=O)O/N=C(\N)c1ccccc1`, the EC50 [4] was 3.91 µM (active) and the EC50 [5] was 2.59 µM (active).
With `CCCc1n[nH]c2c1C(c1cc(OC)ccc1F)C(C#N)=C(N)O2` (configuration not stated) the EC50 [8] was > 260 µM (inactive).
For `COc1cc(C)c(NC(c2ccccc2)c2ccccc2)cc1OC`, the IC50 [1] was 113 µM (active).
With `Cc1ccc(NC(=O)COC(=O)[C@H](C)NC(=O)c2ccccc2)cc1S(=O)(=O)N1CCOCC1` the EC50 [4] was > 112 µM (not active) and the EC50 [5] was > 112 µM (not active).
For `O=C(COC(=O)c1cnc(O)nc1O)Nc1ccccc1Br`, the EC50 [4] was > 112 µM (not active) and the EC50 [5] was > 112 µM (not active).
For `CCCCN(C)C(=O)CCC(=O)NNc1nc2ccccc2c2nc(C)nn12`, the EC50 [2] was 5.37 µM (active) and the EC50 [3] was > 300 µM (not active).
With `CN(c1ccc(C(=O)Nc2ccc3c(c2)OCO3)cc1)S(C)(=O)=O` the EC50 [4] was 26.3 µM (active) and the EC50 [5] was 6 µM (active).
For `COCCCNC(CC(=O)Nc1cc(C)cc(C)c1)C(=O)O` (configuration not stated), the EC50 [2] was > 300 µM (not active) and the EC50 [3] was > 300 µM (not active).
In the case of `COc1cc2c(cc1OC)-c1cc(Nc3cccc(F)c3)nc(=O)n1CC2`, the EC50 [4] was > 112 µM (not active) and the EC50 [5] was 1.08 µM (active).
With `CC(C)c1ccc(/C=C(\NC(=O)c2ccccc2)C(=O)NCCN2CCOCC2)cc1` the EC50 [2] was > 300 µM (not active) and the EC50 [3] was > 300 µM (not active).
With `CN1C(=O)NC(=O)/C(=C/c2ccc[nH]2)C1=O` the EC50 [2] was > 300 µM (not active) and the EC50 [3] was > 300 µM (not active).
With `CCN(CCNC(=O)CN1CCN(Cc2ccc(Cl)cc2)C1=O)c1ccccc1` the EC50 [8] was > 260 µM (inactive).
